Assay: Effect of variation of water (and solvent) content on stability and PXRD pattern of the solid form
Format: physicochemical
Conditions: for effect of variation of water content on stability and PXRD pattern: variation of water content within the stated range

SMILES: Cl.N#Cc1ccc2[nH]cc(CCCCN3CCN(c4ccc5oc(C(N)=O)cc5c4)CC3)c2c1 [Form C, 2-benzofurancarboxamide, 5-[4-[4-(5-cyano-1H-indol-3-yl)butyl]-1-piperazinyl]-, hydrochloride (1:1)]
- effect of variation of water content on stability and PXRD pattern (listed as vilazodone hydrochloride crystalline form C): may not affect the stability and PXRD pattern

SMILES: Cl.N#Cc1ccc2[nH]cc(CCCCN3CCN(c4ccc5oc(C(N)=O)cc5c4)CC3)c2c1 [2-benzofurancarboxamide, 5-[4-[4-(5-cyano-1H-indol-3-yl)butyl]-1-piperazinyl]-, hydrochloride (1:1)]
- effect of variation of water content on stability and PXRD pattern: does not affect the stability and PXRD pattern

SMILES: Cl.N#Cc1ccc2[nH]cc(CCCCN3CCN(c4ccc5oc(C(N)=O)cc5c4)CC3)c2c1 [Form B, 2-benzofurancarboxamide, 5-[4-[4-(5-cyano-1H-indol-3-yl)butyl]-1-piperazinyl]-, hydrochloride (1:1)]
- effect of variation of water content on stability and PXRD pattern (listed as crystalline form B of vilazodone hydrochloride): may not affect the stability and PXRD pattern

SMILES: N#Cc1ccc2[nH]cc(CCCCN3CCN(c4ccc5oc(C(N)=O)cc5c4)CC3)c2c1 [form I of vilazodone free base, vilazodone free base]
- effect of variation of water content on stability and PXRD pattern: does not affect the stability and PXRD pattern

SMILES: Cl.N#Cc1ccc2[nH]cc(CCCCN3CCN(c4ccc5oc(C(N)=O)cc5c4)CC3)c2c1 [Form D, 2-benzofurancarboxamide, 5-[4-[4-(5-cyano-1H-indol-3-yl)butyl]-1-piperazinyl]-, hydrochloride (1:1)]
- effect of variation of water and solvents on stability and PXRD pattern (variation of water and solvent content of the mixed solvates): may not affect the stability and PXRD pattern
